ChEMBL document CHEMBL3997846, “Synthesis and activity of nucleoside-based antiprotozoan compounds” (Bioorg Med Chem, 2017)

Experiments:
[1] = tested on: Trypanosoma brucei rhodesiense; assay: Antitrypanosomal activity against bloodstream forms of Trypanosoma brucei rhodesiense STIB900 trypomastigotes after 72 hrs by alamar blue assay; type: functional; conditions: STIB900, 72 h
L6 = assay: Cytotoxicity against rat L6 cells assessed as growth inhibition after 72 hrs by alamar blue assay; type: cell-based; conditions: L6, 72 h
Trypanosoma cruzi = assay: Antitrypanosomal activity against Trypanosoma cruzi Tulahuen strain C2C4 amastigote forms harboring LacZ infected in rat L6 cells after 96 hrs by CPRG/Nonidet reagent based photometric method; type: functional, cell-based; conditions: Tulahuen strain C2C4, L6, 96 h
Leishmania donovani = assay: Antileishmanial activity against Leishmania donovani MHOM/SD/62/ISCL2D axenic amastigotes after 72 hrs by alamar blue assay; type: functional
[2] = Selectivity index, ratio of IC50 for rat L6 cells to IC50 for chloroquine resistant Plasmodium falciparum K1 erythrocytic stage; type: toxicity; conditions: read-out: Ratio IC50
[3] = Selectivity index, ratio of IC50 for rat L6 cells to IC50 for Leishmania donovani MHOM/SD/62/ISCL2D axenic amastigotes; type: toxicity; conditions: read-out: Ratio IC50
[4] = Selectivity index, ratio of IC50 for rat L6 cells to IC50 for Trypanosoma cruzi Tulahuen strain C2C4 amastigote forms harboring LacZ infected in rat L6 cells; type: toxicity, cell-based; conditions: read-out: Ratio IC50
[5] = Selectivity index, ratio of IC50 for rat L6 cells to IC50 for bloodstream forms of Trypanosoma brucei rhodesiense STIB900 trypomastigotes; type: toxicity; conditions: read-out: Ratio IC50
Plasmodium falciparum = assay: Antiplasmodial activity against chloroquine resistant Plasmodium falciparum K1 erythrocytic stage assessed as reduction in [3H]hypoxanthine incorporation after 48 hrs by liquid scintillation counting assay; type: functional

SMILES	IC50 [1] [µM]	IC50 (L6) [µM]	IC50 (Trypanosoma cruzi) [µM]	IC50 (Leishmania donovani) [µM]	selectivity ratio [2]	selectivity ratio [3]	selectivity ratio [4]	selectivity ratio [5]	IC50 (Plasmodium falciparum) [µM]
CSC[C@H]1O[C@@H](n2cnc3c(N)nc(F)nc32)[C@H](OC(C)=O)[C@@H]1OC(C)=O	26	15	15	18	5	0.8	1	0.6	2.8
CC(=O)NC[C@H]1O[C@@H](n2cnc3c(N)nc(Cl)nc32)[C@H](OC(C)=O)[C@@H]1OC(C)=O	113	190	125	> 230	2	< 0.8	2	2	102
CC(=O)O[C@@H]1[C@H](OC(C)=O)[C@@H](CI)O[C@H]1n1cnc2c(N)nc(F)nc21	15	6.3	14	9.2	6	0.7	0.4	0.4	1.1
CC(=O)O[C@@H]1[C@H](OC(C)=O)[C@@H](CS(C)(=O)=O)O[C@H]1n1cnc2c(N)nc(Cl)nc21	14	114	> 200	> 200	11	< 0.6	< 0.6	8	10
[N-]=[N+]=NC[C@H]1O[C@@H](n2cnc3c(N)nc(F)nc32)[C@H](O)[C@@H]1O	22	3.1	13	1	3	3	0.2	0.1	0.89
CSC[C@H]1O[C@@H](n2cnc3c(N)nc(Cl)nc32)[C@H](OC(C)=O)[C@@H]1OC(C)=O	31	216	161	39	18	6	1	7	12
CC(=O)NC[C@H]1O[C@@H](n2cnc3c(N)nc(Cl)nc32)[C@H](O)[C@@H]1O	79	189	174	> 280	2	< 0.7	1	2	88
[N-]=[N+]=NC[C@H]1O[C@@H](n2cnc3c(N)nc(Cl)nc32)[C@H](O)[C@@H]1O	56	155	76	193	16	0.8	2	3	9.8
CNc1nc(Cl)c2ncn([C@@H]3O[C@H](C)[C@@H](O)[C@H]3O)c2n1	230	175	35	> 335	1	< 0.5	5	0.8	150
CC(=O)O[C@@H]1[C@H](OC(C)=O)[C@@H](CI)O[C@H]1n1cnc2c(N)nc(Cl)nc21	12	86	10	15	22	6	9	7	3.9
COc1nc(I)nc2c1ncn2[C@@H]1O[C@H](C)[C@@H](O)[C@H]1O	108	158	113	126	2	1	1	2	65
CNc1nc(NC)c2ncn([C@@H]3O[C@H](C)[C@@H](O)[C@H]3O)c2n1	> 340	187	109	> 340	< 1	< 0.6	2	< 0.6	> 170
CC(=O)O[C@@H]1[C@H](OC(C)=O)[C@@H](C[S+](C)[O-])O[C@H]1n1cnc2c(N)nc(Cl)nc21 (stereo partly specified)	106	168	106	> 230	2	< 0.7	2	2	106
Nc1nc2c(ccn2[C@@H]2O[C@H](CO)[C@@H](O)[C@H]2O)c(=S)[nH]1	61	185	71	> 335	< 1	< 0.6	3	3	> 168
CC(=O)O[C@@H]1[C@H](OC(C)=O)[C@@H](CN=[N+]=[N-])O[C@H]1n1cnc2c(N)nc(F)nc21	23	18	39	33	12	0.5	0.5	0.8	1.5
CS(=O)(=O)C[C@H]1O[C@@H](n2cnc3c(N)nc(F)nc32)[C@H](O)[C@@H]1O	17	5	35	37	0.6	0.1	0.1	0.3	8
C[S+]([O-])C[C@H]1O[C@@H](n2cnc3c(N)nc(F)nc32)[C@H](O)[C@@H]1O (stereo partly specified)	34	13	74	33	2	0.4	0.2	0.4	5.8
CC(=O)NC[C@H]1O[C@@H](n2cnc3c(N)nc(F)nc32)[C@H](O)[C@@H]1O	> 300	182	178	117	10	2	1	< 0.6	19
CNc1nc(N)nc2c1ncn2[C@@H]1O[C@H](C)[C@@H](O)[C@H]1O	127	211	15	326	11	0.6	14	2	19
CNc1nc(N)nc2c1ncn2[C@@H]1O[C@H](CSC)[C@@H](O)[C@H]1O	290	165	22	> 318	6	0.5	8	0.6	29
CC(=O)O[C@@H]1[C@H](OC(C)=O)[C@@H](CN2C(=O)c3ccccc3C2=O)O[C@H]1n1cnc2c(N)nc(F)nc21	160	129	103	> 200	3	< 0.6	1	0.8	45
Nc1nc([Se][Se]c2nc(N)nc3c2ccn3[C@@H]2O[C@H](CO)[C@@H](O)[C@H]2O)c2ccn([C@@H]3O[C@H](CO)[C@@H](O)[C@H]3O)c2n1	9.6	24	21	> 145	1	< 0.2	1	3	20.5
CS(=O)(=O)C[C@H]1O[C@@H](n2cnc3c(N)nc(Cl)nc32)[C@H](O)[C@@H]1O	126	156	156	> 275	6	< 0.6	1	1	25
Nc1nc(Cl)c2ccn([C@@H]3O[C@H](CO)[C@@H](O)[C@H]3O)c2n1	0.13	163	3.4	0.06	2	2720	48	1250	68
